Measured values as given in PubChem BioAssay AID330 (DTP/NCI, 2004).
Where “and” joins values, the source holds several entries; their conditions need not be identical. Identical values can stand only once. Toxic doses and inconclusive results are not listed. Rule for the calls: active = survival T/C of 150% or more; inactive = T/C below 125% in these data.

Tested on: P388 leukemia ip, CD2F1 mice, survival T/C
Assay: NCI In Vivo Anticancer Drug Screen. Data for tumor model P388 Leukemia (intraperitoneal) in CD2F1 (CDF1) mice
Conditions: endpoint: median survival time, higher = longer survival
Procedure, shortened: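 Mice carrying the transplanted tumor received test compound or vehicle. Survival was recorded in each group, and the value is the treated-group measurement divided by that of the vehicle-treated control group.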

[1] = dose: 60.0 mg/kg/injection, schedule: Q01DX005 (ip), vehicle: saline with Tween-80
[2] = dose: 120.0 mg/kg/injection, schedule: Q01DX005 (ip), vehicle: saline with Tween-80
[3] = dose: 240.0 mg/kg/injection, schedule: Q01DX005 (ip), vehicle: saline with Tween-80
[4] = dose: 100.0 mg/kg/injection, schedule: Q04DX002 (ip), vehicle: saline with Tween-80
[5] = dose: 200.0 mg/kg/injection, schedule: Q04DX002 (ip), vehicle: saline with Tween-80
[6] = dose: 400.0 mg/kg/injection, schedule: Q04DX002 (ip), vehicle: saline with Tween-80
[7] = dose: 50.0 mg/kg/injection, schedule: Q01DX009 (ip), vehicle: saline with Tween-80
[8] = dose: 100.0 mg/kg/injection, schedule: Q01DX009 (ip), vehicle: saline with Tween-80
[9] = dose: 200.0 mg/kg/injection, schedule: Q01DX009 (ip), vehicle: saline with Tween-80
[10] = dose: 50.0 mg/kg/injection, schedule: Q01DX005 (ip), vehicle: Klucel (hydroxypropylcellulose) (HPC)
[11] = dose: 100.0 mg/kg/injection, schedule: Q01DX005 (ip), vehicle: Klucel (hydroxypropylcellulose) (HPC)
[12] = dose: 200.0 mg/kg/injection, schedule: Q01DX005 (ip), vehicle: Klucel (hydroxypropylcellulose) (HPC)
[13] = dose: 50.0 mg/kg/injection, schedule: Q01DX009 (ip), vehicle: Klucel (hydroxypropylcellulose) (HPC)
[14] = dose: 100.0 mg/kg/injection, schedule: Q01DX009 (ip), vehicle: Klucel (hydroxypropylcellulose) (HPC)
[15] = dose: 100.0 mg/kg/injection, schedule: Q04DX003 (ip), vehicle: saline with Tween-80
[16] = dose: 200.0 mg/kg/injection, schedule: Q04DX003 (ip), vehicle: saline with Tween-80
[17] = dose: 25.0 mg/kg/injection, schedule: Q01DX009 (ip), vehicle: saline with Tween-80

Measured: T/C

COc1ccccc1NC(=O)C1=CNC(C)=C(C(=O)Nc2ccccc2OC)C1/C=C/c1ccccc1 (centres undefined)
inactive: [1] 100 % of control | [2] 105 % of control | [3] 105 % of control

O=C1CSC(c2cc(Cl)ccc2[N+](=O)[O-])N1c1nncs1 (centres undefined)
inactive: [4] 87 % of control | [5] 87 % of control | [6] 88 % of control

Cc1onc(-c2ccccc2Cl)c1C(=O)SCC(=O)Nc1cc(C(F)(F)F)cc(C(F)(F)F)c1
inactive: [7] 98 % of control | [8] 100 % of control | [9] 89 % of control

CC1=NN(C(=O)c2ccccc2)C(=O)C1N=Nc1ccc(C(=O)O)cc1 (centres undefined)
inactive: dose: 25.0 mg/kg/injection, schedule: Q01DX005 (ip), vehicle: Klucel (hydroxypropylcellulose) (HPC) 110 % of control | [10] 95 % of control | [11] 104 % of control | [12] 99 % of control

O=C(Nc1ccc(Cl)cc1)Nc1nnc(-c2cccc(Cl)c2)o1
inactive: dose: 7.5 mg/kg/injection, schedule: Q01DX005 (ip), vehicle: saline with Tween-80 95 % of control | dose: 15.0 mg/kg/injection, schedule: Q01DX005 (ip), vehicle: saline with Tween-80 90 % of control and 93 % of control | [1] 89 % of control | [3] 91 % of control

C=CC(C)(O)/C=C/C=C(\C)C(CC1OC1(C)C)OC(=O)/C(C)=C\C (centres undefined)
inactive: [13] 95 % of control | [14] 107 % of control

O=C(NC1(N2CCOCC2)CC1)c1ccc(Cl)cc1
inactive: dose: 60.0 mg/kg/injection, schedule: Q01DX005 (ip), vehicle: Klucel (hydroxypropylcellulose) (HPC) 88 % of control | dose: 120.0 mg/kg/injection, schedule: Q01DX005 (ip), vehicle: Klucel (hydroxypropylcellulose) (HPC) 103 % of control | dose: 240.0 mg/kg/injection, schedule: Q01DX005 (ip), vehicle: Klucel (hydroxypropylcellulose) (HPC) 103 % of control

CC(=O)NC1=C(O)C2C(c3ccccc3)C(C#N)C(=O)N2C1=O (centres undefined)
inactive: [4] 100 % of control | [5] 100 % of control | [6] 95 % of control

CC(=O)C1CCC2C3CC4OCC5(CCC(O)CC45Br)C3CCC12C (centres undefined)
inactive: [10] 104 % of control | [11] 98 % of control | [12] 101 % of control

O=C1c2ccccc2CC1CN1CCCCC1 (centres undefined)
inactive: dose: 6.25 mg/kg/injection, schedule: Q04DX002 (ip), vehicle: saline 108 % of control | dose: 12.5 mg/kg/injection, schedule: Q04DX002 (ip), vehicle: saline 100 % of control | dose: 25.0 mg/kg/injection, schedule: Q04DX002 (ip), vehicle: saline 100 % of control

CCCCCCCCCCCC(=O)NCC(=O)NC1CC(OC2CC(O)(C(C)=O)Cc3c(O)c4c(c(O)c32)C(=O)c2c(OC)cccc2C4=O)OC(C)C1O (centres undefined)
inactive: dose: 0.75 mg/kg/injection, schedule: Q01DX009 (ip), vehicle: other 107 % of control | dose: 1.5 mg/kg/injection, schedule: Q01DX009 (ip), vehicle: other 108 % of control | dose: 3.0 mg/kg/injection, schedule: Q01DX009 (ip), vehicle: other 112 % of control | dose: 6.0 mg/kg/injection, schedule: Q01DX009 (ip), vehicle: other 116 % of control | dose: 12.0 mg/kg/injection, schedule: Q01DX009 (ip), vehicle: other 99 % of control

COc1ccc(-c2cc3cc(OC)c(OC)cc3c(-c3ccccc3)n2)cc1OC
inactive: [1] 98 % of control | [2] 95 % of control | [3] 90 % of control

Nc1cc2ccc3ncccc3c2c2cccnc12
inactive: [15] 103 % of control | [16] 97 % of control | dose: 400.0 mg/kg/injection, schedule: Q04DX003 (ip), vehicle: saline with Tween-80 97 % of control

[N-]=[N+]=NCN1C(=O)C2C3C=CC(C2C1=O)C1C2C(=O)N(CN=[N+]=[N-])C(=O)C2C31 (centres undefined)
inactive: [17] 106 % of control | [7] 108 % of control | [8] 100 % of control | [9] 115 % of control

CCOc1c(N=Nc2ccccc2O)c(C)nn1C(N)=S
inactive: dose: 3.75 mg/kg/injection, schedule: Q01DX005 (ip), vehicle: Klucel (hydroxypropylcellulose) (HPC) 103 % of control | dose: 7.5 mg/kg/injection, schedule: Q01DX005 (ip), vehicle: Klucel (hydroxypropylcellulose) (HPC) 102 % of control | dose: 15.0 mg/kg/injection, schedule: Q01DX005 (ip), vehicle: Klucel (hydroxypropylcellulose) (HPC) 104 % of control and 95 % of control

C=C[C@@](C)(O)CC/C=C(/C)CCC=C(C)C
inactive: [17] 110 % of control | [7] 110 % of control | [8] 110 % of control | dose: 100.0 mg/kg/injection, schedule: Q04DX003 (ip), vehicle: saline 109 % of control | dose: 200.0 mg/kg/injection, schedule: Q04DX003 (ip), vehicle: saline 100 % of control | dose: 400.0 mg/kg/injection, schedule: Q04DX003 (ip), vehicle: saline 113 % of control

Cc1cccc(Cl)c1NC(=O)Nc1cccc(C#N)c1
inactive: [1] 93 % of control | [2] 89 % of control | [3] 98 % of control

OCC#C[C@@H]1CC[C@H]1C#CCO
inactive: [10] 100 % of control | [11] 103 % of control | [12] 103 % of control

N#C/C(=C\c1cccs1)C(=O)c1ccco1
inactive: [7] 101 % of control | [8] 100 % of control | [9] 95 % of control

O=C(SC(O)c1ccc(Cl)cc1)c1ccccc1 (centres undefined)
inactive: [13] 99 % of control | [14] 106 % of control | dose: 200.0 mg/kg/injection, schedule: Q01DX009 (ip), vehicle: Klucel (hydroxypropylcellulose) (HPC) 105 % of control

CC/C(=N/NS(=O)(=O)c1ccc(C)cc1)c1ccc(Cl)cc1
inactive: dose: 50.0 mg/kg/injection, schedule: Q01DX009 (ip), vehicle: saline 97 % of control | dose: 100.0 mg/kg/injection, schedule: Q01DX009 (ip), vehicle: saline 92 % of control | dose: 200.0 mg/kg/injection, schedule: Q01DX009 (ip), vehicle: saline 99 % of control

C/C(=N\N=C/N(C)S(C)(=O)=O)c1ccccc1
inactive: [10] 104 % of control | [11] 104 % of control | [12] 99 % of control

N#CCCNc1ccc(NCCC#N)c2c1C(=O)c1c(O)ccc(O)c1C2=O
inactive: dose: 25.0 mg/kg/injection, schedule: Q04DX002 (ip), vehicle: saline with Tween-80 103 % of control | dose: 50.0 mg/kg/injection, schedule: Q04DX002 (ip), vehicle: saline with Tween-80 94 % of control | [4] 101 % of control | [5] 104 % of control

CN1C(=O)C(=CN(C)c2ccccc2)C(=O)N(C)C1=O
inactive: dose: 25.0 mg/kg/injection, schedule: Q04DX003 (ip), vehicle: saline with Tween-80 111 % of control | dose: 50.0 mg/kg/injection, schedule: Q04DX003 (ip), vehicle: saline with Tween-80 112 % of control | [15] 114 % of control and 96 % of control

CCN(CC)C(=O)N1CC1
inactive: dose: 100.0 mg/kg/injection, schedule: Q04DX002 (ip), vehicle: saline 102 % of control | dose: 200.0 mg/kg/injection, schedule: Q04DX002 (ip), vehicle: saline 100 % of control

CN(C)C1(c2ccccc2)N=NN=S1C (centres undefined)
inactive: [15] 105 % of control | [16] 105 % of control
